Source: patent publication US11292821B2, “Peptides and combination of peptides for use in immunotherapy against lung cancer, including NSCLC, SCLC and other cancers” (Immatics Biotechnologies GmbH, priority 2017, dated 2022)

Key:
CD8+ T cells = assay: In vitro T-cell priming assay with aAPCs (in vitro immunogenicity for MHC class I presented peptides); format: cell-based, human; conditions: in vitro immunogenicity, HLA A*24
HLA-A*24 = assay: MHC binding assay (UV-ligand exchange, β2m ELISA); design: species or system human

Peptide exchange (peptide exchange yield, MHC class I binding score) (HLA-A*24) | Substance | Wells positive [%] (CD8+ T cells)
“+++” (>50 = +++) | 383 (RYKQDVERF; listed as Homo sapiens) [compound 383] | “+++” (50%-69% = +++)
“++++” (>75% = ++++) | 4 (SYEKVINYL; listed as Homo sapiens) [compound 4] | “+” (<20% = +)
“++++” (>75% = ++++) | 2 (VWSNVTPLKF; listed as Homo sapiens) [compound 2] | “+” (<20% = +)
“++++” (>75% = ++++) | 386 (VYNDHSIYVW; listed as Homo sapiens) [compound 386] | “++” (20%-49% = ++)
“++” (>20% = ++) | 59 (KYSTTFFMV; listed as Homo sapiens) [compound 59] | “++” (20%-49% = ++)
“+++” (>50 = +++) | 16 (TYNPDFSSL; listed as Homo sapiens) [compound 16] | “+” (<20% = +)
“++++” (>75% = ++++) | 13 (HYTYILEVF; listed as Homo sapiens) [compound 13] | “+++” (50%-69% = +++)
“+++” (>50 = +++) | 76 (WYGWHFPEL; listed as Homo sapiens) [compound 76] | “+” (<20% = +)
“++++” (>75% = ++++) | 385 (MYINEVERL; listed as Homo sapiens) [compound 385] | –
“++++” (>75% = ++++) | 375 (VYSDLHAFYY; listed as Homo sapiens) [compound 375] | “+” (<20% = +)
“++++” (>75% = ++++) | 47 (KYADYFLEV; listed as Homo sapiens) [compound 47] | –
“++++” (>75% = ++++) | 79 (RYLADLPTL; listed as Homo sapiens) [compound 79] | “+” (<20% = +)
“++++” (>75% = ++++) | 1 (QYDPTPLTW; listed as Homo sapiens) [compound 1] | “+” (<20% = +)
“++++” (>75% = ++++) | 10 (VWSDVTPLNF; listed as Homo sapiens) [compound 10] | “+” (<20% = +)
“++++” (>75% = ++++) | 37 (QWPWQASLQF; listed as Homo sapiens) [compound 37] | –
“+++” (>50 = +++) | 54 (LLIKLLQTF; listed as Homo sapiens) [compound 54] | –
“+++” (>50 = +++) | 379 (NYIVPDKQIF; listed as Homo sapiens) [compound 379] | “+” (<20% = +)
“++++” (>75% = ++++) | 30 (QYLPGWTVLF; listed as Homo sapiens) [compound 30] | –
“++” (>20% = ++) | 36 (KQMEDGHTLF; listed as Homo sapiens) [compound 36] | –
“++++” (>75% = ++++) | 56 (VYMIEPLEL; listed as Homo sapiens) [compound 56] | –
“++++” (>75% = ++++) | 378 (KFLGPAEHLTF; listed as Homo sapiens) [compound 378] | –

Peptide exchange (peptide exchange yield, MHC class I binding score) (HLA-A*24) | Substance | Wells positive [%] (CD8+ T cells)
“++++” (>75% = ++++) | 72 (RYEGILYTI; listed as Homo sapiens) [compound 72] | “+” (<20% = +)
“++++” (>75% = ++++) | 6 (KYKDYFPVI; listed as Homo sapiens) [compound 6] | “+” (<20% = +)
“+++” (>50 = +++) | 40 (QYEPPSAPSTTF; listed as Homo sapiens) [compound 40] | –
“++++” (>75% = ++++) | 80 (YYSPLRDLL; listed as Homo sapiens) [compound 80] | –
“++++” (>75% = ++++) | 381 (TYSKKHFRI; listed as Homo sapiens) [compound 381] | –
“++++” (>75% = ++++) | 65 (VYPASKMFPFI; listed as Homo sapiens) [compound 65] | “+” (<20% = +)
“++++” (>75% = ++++) | 34 (MQPRMFFLF; listed as Homo sapiens) [compound 34] | –
“++++” (>75% = ++++) | 46 (AFPVTSIFHTF; listed as Homo sapiens) [compound 46] | –
“++” (>20% = ++) | 3 (YLEKFYGL; listed as Homo sapiens) [compound 3] | –
“++++” (>75% = ++++) | 44 (AYLSAVGTF; listed as Homo sapiens) [compound 44] | –
“++++” (>75% = ++++) | 45 (KYFVPPQLF; listed as Homo sapiens) [compound 45] | –
“++++” (>75% = ++++) | 50 (SYPELVKMVW; listed as Homo sapiens) [compound 50] | –
“++++” (>75% = ++++) | 82 (RFLPSPVVI; listed as Homo sapiens) [compound 82] | –
“++++” (>75% = ++++) | 26 (KTPTNYYLF; listed as Homo sapiens) [compound 26] | –
“++++” (>75% = ++++) | 78 (TWFPKTPMLF; listed as Homo sapiens) [compound 78] | –
“++++” (>75% = ++++) | 32 (SLPDLTPTF; listed as Homo sapiens) [compound 32] | –
“++++” (>75% = ++++) | 18 (DYIGSVEKW; listed as Homo sapiens) [compound 18] | –
“++++” (>75% = ++++) | 53 (KYITNLEDL; listed as Homo sapiens) [compound 53] | –
“+++” (>50 = +++) | 380 (VFQEKHHVI; listed as Homo sapiens) [compound 380] | “+” (<20% = +)
“+” (>10% = +) | 39 (LIFMLANVF; listed as Homo sapiens) [compound 39] | –
“++++” (>75% = ++++) | 58 (QFAAPLRGIYF; listed as Homo sapiens) [compound 58] | –

Peptide exchange (peptide exchange yield, MHC class I binding score) (HLA-A*24) | Substance | Wells positive [%] (CD8+ T cells)
“++++” (>75% = ++++) | 384 (KYVKVFDKF; listed as Homo sapiens) [compound 384] | “+++” (50%-69% = +++)
“++++” (>75% = ++++) | 66 (IYFRDSSFL; listed as Homo sapiens) [compound 66] | “++” (20%-49% = ++)
“+++” (>50 = +++) | 61 (NYAENILTL; listed as Homo sapiens) [compound 61] | “++” (20%-49% = ++)
“++++” (>75% = ++++) | 23 (KFIISDWRF; listed as Homo sapiens) [compound 23] | –
“++++” (>75% = ++++) | 57 (YPSIIQEF; listed as Homo sapiens) [compound 57] | –
“++++” (>75% = ++++) | 67 (RYPGKFYRV; listed as Homo sapiens) [compound 67] | –
“+++” (>50 = +++) | 17 (YYADKKTFIVL; listed as Homo sapiens) [compound 17] | –
“++++” (>75% = ++++) | 51 (KYALLLQEL; listed as Homo sapiens) [compound 51] | –
“++++” (>75% = ++++) | 31 (QYQNVLTLW; listed as Homo sapiens) [compound 31] | –
“++++” (>75% = ++++) | 63 (VMPSDSFFF; listed as Homo sapiens) [compound 63] | –
“++++” (>75% = ++++) | 24 (MYPDLSELLM; listed as Homo sapiens) [compound 24] | –
“+++” (>50 = +++) | 387 (RWLPQKNAAQF; listed as Homo sapiens) [compound 387] | –
“++++” (>75% = ++++) | 35 (KYLEESVWL; listed as Homo sapiens) [compound 35] | –
“++++” (>75% = ++++) | 38 (KYTNWKAFL; listed as Homo sapiens) [compound 38] | –
“+++” (>50 = +++) | 21 (SYEVRSTF; listed as Homo sapiens) [compound 21] | –
“++++” (>75% = ++++) | 52 (KYMKIFHKF; listed as Homo sapiens) [compound 52] | –
“++++” (>75% = ++++) | 74 (VYDQYFITL; listed as Homo sapiens) [compound 74] | –
“+++” (>50 = +++) | 33 (KSSVIASLLF; listed as Homo sapiens) [compound 33] | –
“++++” (>75% = ++++) | 27 (NYTLYPITF; listed as Homo sapiens) [compound 27] | –
“+” (>10% = +) | 19 (ILKEDPFLF; listed as Homo sapiens) [compound 19] | –
“+++” (>50 = +++) | 73 (SYIGLPLTL; listed as Homo sapiens) [compound 73] | –
